In patent US20180037568A1, “MODULATORS OF METHYL MODIFYING ENZYMES, COMPOSITIONS AND USES THEREOF” (Constellation Pharmaceuticals, Inc., priority 2015, published 2018):
Like-named read-outs stand apart in the source and are kept apart here.

Key:
[1] = system: H3K27me3 mark; experiment: H3K27me3 Alpha Hela Assay (AlphaLISA); type: cell-based; details: Hela cells, 72 hrs; read-out: EZH2 Cell H3K27me3 Alpha HeLa (EC50 K27me3)
Method in brief: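 HeLa cells at 1,000/well were treated with ten 3-fold compound doses for 72 h at 37 °C. After lysis and histone extraction, H3K27me3 was detected by AlphaLISA with anti-K27me3 acceptor beads, biotinylated anti-H3 (C-ter) antibody (3 nM final) and streptavidin donor beads (20 μg/mL final). Signals were normalized to DMSO and curve-fitted for EC50.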

[2] = In vitro metabolism, mouse liver microsomes; type: in vitro ADME; details: 10 μM compound, 0.7 mg protein/mL, read-out: intrinsic clearance
Protocol: (§1) The in vitro metabolism of compound 21 was evaluated by disappearance of compound in mouse, rat, dog and human liver microsomes at 10 μM compound concentration.
(§2) Data is expressed in μL/min/mg protein.

[3] = In vitro metabolism, rat liver microsomes; type: in vitro ADME; details: 10 μM compound, 0.7 mg protein/mL, read-out: intrinsic clearance
Protocol: as §1, §2

[4] = In vitro metabolism, dog liver microsomes; type: in vitro ADME; details: 10 μM compound, 0.7 mg protein/mL, read-out: intrinsic clearance
Protocol: as §1, §2

[5] = In vitro metabolism, human liver microsomes; type: in vitro ADME; details: 10 μM compound, 0.7 mg protein/mL, read-out: intrinsic clearance
Protocol: as §1, §2

[6] = Plasma-tissue distribution and glucuronide formation in BALB/C mice; type: in vivo; details: mouse, male BALB/C mice, oral gavage 100 mg/kg, 1 hour after dosing
Protocol: 1 h after dosing a group of mice (3 mice/group) via oral gavage at 100 mg/kg of compound 21, blood is collected from the submandibular or saphenous vein (˜30 μL) and tissue is collected from the biceps femoris (both sides). After tissue preparation and homogenization, plasma and tissue samples are assayed for parent drug using LC/MS/MS methodologies with internal standard. The glucuronide metabolites (parent mass +176) are also monitored via LC/MS/MS and compared to the internal standard for quantitation.

[7] = Mean plasma and tumor concentration, 7-day study in SCID mice; type: in vivo; details: mouse, po, female SCID mice

Compound: COc1cc(C)[nH]c(=O)c1CNC(=O)c1c(C)n(C(C)C2CCN(C)C(C(F)(F)F)C2)c2ccccc12 (single isomer, unassigned) [Compound 21, N-((4-methoxy-6-methyl-2-oxo-1,2-dihydropyridin-3-yl)methyl)-2-methyl-1-(1-(1-methyl-2-(trifluoromethyl)piperidin-4-yl)ethyl)-1H-indole-3-carboxamide]
- EC50 [1]: < 400 nM
- microsomal CLint at 10 μM [2]: 55 µL/min/mg
- microsomal CLint at 10 μM [3]: 35 µL/min/mg
- microsomal CLint at 10 μM [4]: 35 µL/min/mg
- microsomal CLint at 10 μM [5]: 39 µL/min/mg
- concentration at 1 h ([6]; muscle (biceps femoris), biceps femoris, read-out: Conc. in Muscle): 7240 ng/g
- Kp at 1 h ([6]; muscle/plasma, read-out: Ratio Muscle/Plasma): 0.86
- concentration at 1 h ([6]; plasma, read-out: Conc. in Plasma): 8370 ng/mL
- concentration at 7 day ([7]; plasma, 100 mg/kg P.O. BID, read-out: Mean Plasma Conc): 280 ng/mL
- concentration at 7 day ([7]; plasma, 200 mg/kg P.O. BID, read-out: Mean Plasma Conc): 1600 ng/mL
- concentration at 7 day ([7]; tumor, 100 mg/kg P.O. BID, read-out: Mean Tumor Conc): 451 ng/g
- concentration at 7 day ([7]; tumor, 200 mg/kg P.O. BID, read-out: Mean Tumor Conc): 693 ng/g
